Structures are written as SMILES. Structures can show the parent of a compound that is named as a salt.

The experiment deals with T1, human GPR39 receptor (Homo sapiens, UniProt O43194).
T1 construct: PC3 Cells, Expressing the Endogenous Human GPR39 Receptor; endogenous in cells; host or cells: PC3 (human prostate adenocarcinoma) cells
T1 sequence (O43194 1-453): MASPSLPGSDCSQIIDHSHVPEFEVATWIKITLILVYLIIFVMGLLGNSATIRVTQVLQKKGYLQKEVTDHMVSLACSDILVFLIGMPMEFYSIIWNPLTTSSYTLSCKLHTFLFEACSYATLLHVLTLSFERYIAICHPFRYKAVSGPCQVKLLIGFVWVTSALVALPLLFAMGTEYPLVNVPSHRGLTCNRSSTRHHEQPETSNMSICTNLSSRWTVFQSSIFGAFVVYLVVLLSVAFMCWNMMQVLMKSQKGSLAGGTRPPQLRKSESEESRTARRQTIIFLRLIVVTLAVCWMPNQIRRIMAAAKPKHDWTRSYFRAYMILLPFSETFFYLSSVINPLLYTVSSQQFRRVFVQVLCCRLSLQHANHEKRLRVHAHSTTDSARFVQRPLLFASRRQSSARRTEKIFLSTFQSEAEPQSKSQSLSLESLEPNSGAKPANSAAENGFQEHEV
Kind of experiment: Intracellular calcium response (FLIPR, Calcium-6) in PC3 cells, antagonism of agonist C3 (TC-G 1008) at EC90. The format is cell-based. To be noted: functional pKi (-Log10Ki) by modified Cheng-Prusoff from IC50; PC3 cells endogenously expressing human GPR39; 30 μM ZnCl2; agonist C3 (TC-G 1008) at EC90 1.5 μM; read-out: fpKi activity. The essentials: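 Calcium-6-loaded cells in HEPES buffer pH 7.4 were given compound with 30 μM final ZnCl2 (0.32% DMSO) for 10 min, then challenged with 1.5 μM C3. Baseline-subtracted peak fluorescence expressed as % inhibition of the C3 response; IC50 from four-parameter logistic fit, reported as binned fpKi.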
(In general: Calcium assays in cells follow changes in intracellular calcium, usually with a dye or a luminescent sensor.)
With `COC1(C)CCN(C(=O)c2ccc(-c3nnc(C)[nH]3)cc2-c2nc(C(F)(F)F)cs2)CC1` [Example 67, (4-methoxy-4-methyl-1-piperidyl)-[4-(5-methyl-4H-1,2,4-triazol-3-yl)-2-[4-(trifluoromethyl)thiazol-2-yl]phenyl]methanone], the Ki is at most 0.0501 µM.

For `O=C(Nc1ccc(C(=O)N2CCC3(COC3)C2)c(N2CCCC2)c1)C1CC1` [Example 3, N-[4-(2-oxa-7-azaspiro[3.4]octane-7-carbonyl)-3-pyrrolidin-1-ylphenyl]cyclopropanecarboxamide], the Ki was in the range of 1.26 to 6.31 µM.

For `Cc1nnc(Nc2ccc(C(=O)N3CCN(C)CC3c3ccccc3)c(N3CCCC3)c2)s1` (stereo not shown) [Example 20, (4-methyl-2-phenylpiperazin-1-yl)-[4-[(5-methyl-1,3,4-thiadiazol-2-yl)amino]-2-pyrrolidin-1-ylphenyl]methanone], the Ki fell in the range of 1.26 to 6.31 µM. Take `Cc1nnc(-c2ccc(C(=O)N3CCC(F)(F)CC3)c(-c3ccn(C(C)C)n3)c2)[nH]1` [Example 51, (4,4-difluoropiperidin-1-yl)-[4-(5-methyl-4H-1,2,4-triazol-3-yl)-2-(1-propan-2-ylpyrazol-3-yl)phenyl]methanone]: the Ki was at most 0.0501 µM. For `CN1CCN(C(=O)c2cc3[nH]c(C4CC4)nc3cc2N2CCCC2)C(c2ccccc2)C1` (stereo not shown) [Example 113, (2-cyclopropyl-6-pyrrolidin-1-yl-3H-benzimidazol-5-yl)-(4-methyl-2-phenylpiperazin-1-yl)methanone], the Ki was above 6.31 µM.

Take `Cc1cc(Cl)cc(C2CN(C)CCN2C(=O)c2ccc(NC(=O)C3CC3)cc2N2CCCC2)c1` (single isomer, unassigned) [Example 110b, N-[4-[2S or 2R-(3-chloro-5-methylphenyl)-4-methylpiperazine-1-carbonyl]-3-pyrrolidin-1-ylphenyl]cyclopropanecarboxamide hydrochloride]: the Ki fell in the range of 1.26 to 6.31 µM.

In the case of `Cc1nnc(-c2ccc(C(=O)N3CCC(C(F)(F)F)CC3)c(-c3cccc(C(F)(F)F)n3)c2)[nH]1` [Example 73, [4-(5-methyl-4H-1,2,4-triazol-3-yl)-2-[6-(trifluoromethyl)pyridin-2-yl]phenyl]-[4-(trifluoromethyl)piperidin-1-yl]methanone], the Ki was at most 0.0501 µM. Consider `Cc1nnc(-c2ccc(C(=O)N3CCC4(CCO4)CC3)c(-c3ccn(C(C)C)n3)c2)[nH]1` [Example 41, [2-(1-isopropylpyrazol-3-yl)-4-(5-methyl-4H-1,2,4-triazol-3-yl)phenyl]-(1-oxa-7-azaspiro[3.5]nonan-7-yl)methanone], for which the Ki was at most 0.0501 µM. In the case of `Cc1nnc(-c2ccc(C(=O)N3CCC(C)CC3)c(-c3ccn(C(C)(C)C)n3)c2)[nH]1` [Example 64, [2-(1-tert-butylpyrazol-3-yl)-4-(5-methyl-4H-1,2,4-triazol-3-yl)phenyl]-(4-methyl-1-piperidyl)methanone], the Ki is at most 0.0501 µM. `Cc1nnc(-c2ccc(C(=O)N3CCC(F)(F)CC3)c(-c3ccn(C(C)(C)C)n3)c2)[nH]1` [Example 54, [2-(1-tert-butylpyrazol-3-yl)-4-(5-methyl-4H-1,2,4-triazol-3-yl)phenyl]-(4,4-difluoropiperidin-1-yl)methanone]: the Ki was at most 0.0501 µM. Regarding `N#Cc1ccc(-c2cc(NC(=O)C3CC3)ccc2C(=O)N2CCS(=O)(=O)CC2)s1` [Example 26, N-[3-(5-cyanothiophen-2-yl)-4-(1,1-dioxo-1,4-thiazinane-4-carbonyl)phenyl]cyclopropanecarboxamide], the Ki fell in the range of 1.26 to 6.31 µM.

As for `O=C(Nc1ccc(C(=O)N2CCS(=O)(=O)CC2)c(-c2cnc(C(F)(F)F)s2)c1)C1CC1` [Example 27, N-[4-(1,1-dioxo-1,4-thiazinane-4-carbonyl)-3-[2-(trifluoromethyl)-1,3-thiazol-5-yl]phenyl]cyclopropanecarboxamide], the Ki was 1.26 to 6.31 µM. The result for `C[C@@H]1CN(C(=O)c2ccc(NC(=O)C3CC3)cc2N2CCCC2)C[C@@H](C)O1` (racemic) [Example 4, N-[4-[(trans)-2,6-dimethylmorpholine-4-carbonyl]-3-pyrrolidin-1-ylphenyl]cyclopropanecarboxamide] reads 1.26 to 6.31 µM; that for `Cc1nnc(-c2ccc(C(=O)N3CCC(C(F)(F)F)CC3)c(-c3ccn(C(C)(C)C)n3)c2)[nH]1` [Example 53, [2-(1-tert-butylpyrazol-3-yl)-4-(5-methyl-4H-1,2,4-triazol-3-yl)phenyl]-[4-(trifluoromethyl)-1-piperidyl]methanone], at most 0.0501 µM. Regarding `Cc1nnc(-c2ccc(C(=O)N3CC4(C3)CC(F)(F)C4)c(-c3ccn(C(C)C)n3)c2)[nH]1` [Example 52, (6,6-difluoro-2-azaspiro[3.3]heptan-2-yl)-[2-(1-isopropylpyrazol-3-yl)-4-(5-methyl-4H-1,2,4-triazol-3-yl)phenyl]methanone], the Ki is at most 0.0501 µM. For `Cc1nnc(-c2ccc(C(=O)N3CCN(C)CC3c3ccccc3)c(N3CCC(C(C)C)C3)c2)[nH]1` (single isomer, unassigned) [Example 125b, (4-methyl-2-phenylpiperazin-1-yl)-[4-(5-methyl-4H-1,2,4-triazol-3-yl)-2-(3-propan-2-ylpyrrolidin-1-yl)phenyl]methanone], the Ki was at most 0.0501 µM.

Values taken from patent publication US20250333405A1, “ANTAGONISTS OF GPR39 PROTEIN” (VASOCARDEA, INC., priority 2024, published 2025).
